system: human breast carcinoma MCF-7 cells; test: In vitro antiproliferative assay (SRB), MCF-7; assay type: cell-based; settings: 72 h exposure, mean ± SD
Experimental: Biphenotypic B myelomonocytic leukemia MV4-11, human lung carcinoma A549, human breast carcinoma MCF-7, and normal mouse fibroblast BALB/3T3 cells were obtained from American Type Culture Collection (Rockville, Maryland, USA). All the cell lines are being maintained at the Institute of Immunology and Experimental Therapy, Wroclaw, Poland. MV4-11 cells were cultured in RPMI 1640 medium (Gibco, UK) with 2 mM L-glutamine adjusted to contain 1.0 mM sodium pyruvate, and 10% fetal bovine serum (FBS) (all from Sigma-Aldrich, Germany). A549 cells were cultured in RPMI 1640+ Opti-MEM (1:1) (both from Gibco, UK), MCF-7 cells in Eagle medium (IIET, Wroclaw, Poland), BALB/3T3 in Dulbecco medium (IIET, Poland) supplemented with 2 mM L-glutamine and 1.0 mM sodium pyruvate, 10% fetal bovine serum (all from Sigma-Aldrich, Germany). The MCF-7 cell culture was supplemented with 0.8 mg/l of insulin (Sigma-Aldrich, Germany). All culture media were supplemented with 100 units/ml penicillin, and 100 µg/ml streptomycin (both from Polfa Tarchomin S.A., Poland). All cell lines were grown at 37 °C with 5% CO2 humidified atmosphere (Łączkowski et al. [2014], [2016a]). Prior to usage, the compounds were dissolved in DMSO and culture medium (1: 9) to the concentration of 1 mg/ml, and subsequently diluted in culture medium to reach the required concentrations (0.1, 1, 10, and 100 µg/ml) (Łączkowski et al. [2014], [2016a]). Twenty-four hours prior to the addition of the tested compounds, the cells counted using Burker hemocytometer were plated in 96-well plates (Sarstedt, Germany) at a density of 1 × 10^4 cells per well. The assay was performed after 72 h of exposure to varying concentrations of the tested agents. The in vitro cytotoxic effect of all agents was examined using the SRB assay for adherent cells (A549, MCF-7, and BALB/3T3) or MTT assay for leukemia cells (MV4-11) as described previously. […] Each compound in each concentration was tested in triplicate in a single experiment, which was repeated 3–7 times (Rubinstein et al. [1990]; Bramson et al. [1995]). Cells were attached to the bottom of plastic wells by fixing them with cold 50% TCA (trichloroacetic acid, POCH, Gliwice, Poland) on top of the culture medium in each well. The plates were incubated at 4 °C for 1 h and then washed five times with tap water. The cellular material fixed with TCA was stained with 0.1% sulforhodamine B (SRB, Sigma-Aldrich, Germany) and dissolved in 1% acetic acid (POCH, Gliwice, Poland) for 30 min. Unbound dye was removed by rinsing (4×) in 1% acetic acid. The protein-bound dye was extracted with 10 mM unbuffered Tris base (Sigma-Aldrich, Germany) for determination of the optical density (λ = 540 nm) in a computer-interfaced, 96-well Synergy H4 (BioTek Instruments USA) photometer microtiter plate reader (Sidoryk et al. [2012]).

With C/C(=N\Nc1nc(-c2cc3ccccc3oc2=O)cs1)c1ccc(Nc2nc(N)nc(N)n2)cc1 [Compound 4f, (E)-3-(2-(2-(1-(4-(4,6-diamino-1,3,5-triazin-2-yloamino)phenyl)ethylidene)hydrazinyl)thiazol-4-yl)-2H-chromen-2-on] the “IC50 MCF-7” value was “─”.

In order of rising “IC50 MCF-7” value:
1. C/C(=N\Nc1nc(-c2ccc(NS(C)(=O)=O)cc2)cs1)c1ccc(Nc2nc(N)nc(N)n2)cc1 [Compound 4j, (E)-N-(4-(2-(2-(1-(4-(4,6-diamino-1,3,5-triazin-2-yloamino)phenyl)ethylidene)hydrazinyl)thiazol-4-yl)phenyl)-methanesulfonamide]  5.95 ± 2.165 µg/mL
2. CC(=O)Nc1ccc(-c2csc(N/N=C(\C)c3ccc(Nc4nc(N)nc(N)n4)cc3)n2)cc1 [Compound 4g, (E)-N^2-(4-(2-(2-(1-(4-(4,6-diamino-1,3,5-triazin-2-yloamino)phenyl)ethylidene)hydraziny)thiazol-4-yl)phenyl)-acetamide]  6.67 ± 2.958 µg/mL

same assay, conditions: Homo sapiens, MCF7, 72 h exposure, mean ± SD

In order of rising IC50:
1. C/C(=N\Nc1nc(-c2ccc(Br)cc2)cs1)c1ccc(Nc2nc(N)nc(N)n2)cc1 [Compound 4d, (E)-N^2-(4-(1-(2-(4-(4-bromophenyl)-1,3-thiazol-2-yl)hydrazinylidene)ethyl)phenyl)-1,3,5-triazine-2,4,6-triamine]  3.18 ± 0.192 µg/mL
2. C/C(=N\Nc1nc(-c2ccc(Cl)cc2)cs1)c1ccc(Nc2nc(N)nc(N)n2)cc1 [Compound 4b, (E)-N^2-(4-(1-(2-(4-(4-chlorophenyl)-1,3-thiazol-2-yl)hydrazinylidene)ethyl)phenyl)-1,3,5-triazine-2,4,6-triamine]  3.23 ± 0.401 µg/mL
3. C/C(=N\Nc1nc(-c2ccc(Cl)c(Cl)c2)cs1)c1ccc(Nc2nc(N)nc(N)n2)cc1 [Compound 4i, (E)-N^2-(4-(1-(2-(4-(3,4-dichlorophenyl)-1,3-thiazol-2-yl)hydrazinylidene)ethyl)phenyl)-1,3,5-triazine-2,4,6-triamine]  3.69 ± 1.64 µg/mL
4. C/C(=N\Nc1nc(-c2ccc(F)cc2)cs1)c1ccc(Nc2nc(N)nc(N)n2)cc1 [Compound 4a, (E)-N^2-(4-(1-(2-(4-(4-fluorophenyl)-1,3-thiazol-2-yl)hydrazinylidene)ethyl)phenyl)-1,3,5-triazine-2,4,6-triamine]  4.28 ± 0.984 µg/mL
5. C/C(=N\Nc1nc(-c2ccccc2)cs1)c1ccc(Nc2nc(N)nc(N)n2)cc1 [Compound 4k, (E)-N^2-(4-(1-(2-(4-phenyl-1,3-thiazol-2-yl)hydrazinylidene)ethyl)phenyl)-1,3,5-triazine-2,4,6-triamine]  5.73 ± 2.05 µg/mL
6. C/C(=N\Nc1nc(-c2ccc(C)cc2)cs1)c1ccc(Nc2nc(N)nc(N)n2)cc1 [Compound 4c, (E)-N^2-(4-(1-(2-(4-(4-tolyl)-1,3-thiazol-2-yl)hydrazinylidene)ethyl)phenyl)-1,3,5-triazine-2,4,6-triamine]  8.33 ± 2.83 µg/mL
7. C/C(=N\Nc1nc(-c2ccc(I)cc2)cs1)c1ccc(Nc2nc(N)nc(N)n2)cc1 [Compound 4e, (E)-N^2-(4-(1-(2-(4-(4-iodophenyl)-1,3-thiazol-2-yl)hydrazinylidene)ethyl)phenyl)-1,3,5-triazine-2,4,6-triamine]  8.41 ± 0.373 µg/mL
8. C/C(=N\Nc1nc(-c2ccc([N+](=O)[O-])cc2)cs1)c1ccc(Nc2nc(N)nc(N)n2)cc1 [Compound 4h, (E)-N^2-(4-(1-(2-(4-(4-nitrophenyl)-1,3-thiazol-2-yl)hydrazinylidene)ethyl)phenyl)-1,3,5-triazine-2,4,6-triamine]  8.72 ± 5.28 µg/mL

Source: paper PMC5854716, “Synthesis, molecular docking, ctDNA interaction, DFT calculation and evaluation of antiproliferative and anti-Toxoplasma gondii activities of 2,4-diaminotriazine-thiazole derivatives” (Medicinal Chemistry Research, 2018)
